From PubChem BioAssay (NCI) come the findings set out here.

Structures are written as SMILES.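 These data come from cells grown in 96-well plates and exposed to compound for 48 hours at five concentrations. The concentration for 50% growth inhibition is given as GI50. TGI marks complete inhibition of growth.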

Among the test systems are MDA-MB-231 breast; ACHN renal; LXFL 529 NSCLC; DMS 114 small cell lung; XF 498 CNS; M19-MEL melanoma; CCRF-CEM leukemia; HL-60(TB) leukemia; P388/ADR leukemia; SN12K1 renal; P388 leukemia.
Assay in all cases: NCI tumour cell line growth inhibition, 48 h

Regarding `CC1=C(C)[C@@]2(C)O[C@@]2(C)O[C@@]2(C)O[C@@]12C`, the TGI in the assay on MDA-MB-231 breast and with ACHN renal was above 100 µM in each case.
Consider `O=C([O-])CC(=O)[O-].O=C([O-])CC(=O)[O-].[K+].[Pd+2]`, for which, in the assay on LXFL 529 NSCLC, the GI50 was above 100 µM and the TGI was above 100 µM.
Turning to `O=C(Nc1ccc(C2=NCCN2)cc1)c1cncc(C(=O)Nc2ccc(C3=NCCN3)cc2)c1`, the TGI in the assay on DMS 114 small cell lung, with XF 498 CNS, in the assay on M19-MEL melanoma, in the assay with CCRF-CEM leukemia, in the assay with HL-60(TB) leukemia and with P388/ADR leukemia was above 100 µM each time. The results for the TGI in the assay with SN12K1 renal and in the assay with P388 leukemia were above 100 µM and 82.5 µM, respectively.
Take `CCOC(=O)C(NC(C)=O)(Nc1ccc(F)cc1)C(F)(F)F` (stereo unspecified): the TGI with MDA-MB-231 breast, in the assay on CCRF-CEM leukemia, in the assay with ACHN renal and in the assay with HL-60(TB) leukemia was above 100 µM throughout.
